Several values for one entry are separate records, joined by “and”; a condition that tells them apart may be missing. Equal values may be shown once.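 Tested at 5 concentrations; 48 h exposure; 96-well plates; endpoints linearly interpolated, else capped at highest concentration. At the GI50, growth is halved. The concentration for full growth arrest is given as TGI.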
Legend:
Experiment in all cases: NCI anticancer screen, dose series, 48 h
ACHN renal = tested on: ACHN renal
DU-145 prostate = tested on: DU-145 prostate
IGROV1 ovarian = tested on: IGROV1 ovarian
KM20L2 colon = tested on: KM20L2 colon
LXFL 529 NSCLC = tested on: LXFL 529 NSCLC
MDA-MB-231 breast = tested on: MDA-MB-231 breast
NCI/ADR-RES ovarian = tested on: NCI/ADR-RES ovarian
SK-MEL-28 melanoma = tested on: SK-MEL-28 melanoma
SK-MEL-5 melanoma = tested on: SK-MEL-5 melanoma
SW-620 colon = tested on: SW-620 colon

Compound	TGI (ACHN renal)	TGI (DU-145 prostate) [µM]	TGI (IGROV1 ovarian) [µM]	TGI (KM20L2 colon) [µM]	TGI (LXFL 529 NSCLC)	TGI (MDA-MB-231 breast) [µM]	TGI (NCI/ADR-RES ovarian) [µM]	TGI (SK-MEL-28 melanoma) [µM]	TGI (SK-MEL-5 melanoma) [µM]	TGI (SW-620 colon) [µM]	GI50 (ACHN renal) [µM]	GI50 (IGROV1 ovarian)	GI50 (KM20L2 colon)	GI50 (LXFL 529 NSCLC) [µM]	GI50 (NCI/ADR-RES ovarian) [µM]	GI50 (SK-MEL-28 melanoma)	GI50 (SW-620 colon)
Cc1cc(NC(=O)C(=O)Cc2nc3ccccc3s2)ccc1Cl	> 100 µM	> 100	> 100	> 100	> 100 µM	> 100	> 100	> 100	> 100	> 100	–	–	–	–	–	–	–
O=S(=O)(c1ccccc1)C1CN(Cc2ccccc2)CCN(Cc2ccccc2)C1	> 100 µM	> 100	> 100	> 100	> 100 µM	> 100	78.1	> 100	59.3	> 78.7	–	–	–	–	–	–	–
COC(=O)C12OCC34C(CC5C(C)=CC(=O)C(O)C5(C)C3C(O)C1O)OC(=O)C(OC(=O)CC(C)C)C24 (stereo not drawn)	0.3 µM and 0.174 µM	0.00425	–	–	0.0825 µM and 0.104 µM	0.0247	–	–	–	–	0.0193	< 0.0288 µM and 0.05 µM	0.0479 µM and 0.05 µM	0.00384	0.288	< 0.0352 µM and 0.05 µM	0.042 µM and 0.05 µM
O=[N+]([O-])c1ccc(C2N3CCCCC3[C@@H]3c4[nH]c5ccccc5c4CCN23)cc1 (stereo partly drawn)	43.8 µM	–	> 100	24.5	> 100 µM	–	–	42	28.2	> 100	–	–	–	–	–	–	–
NC(CCCNCc1ccccc1O)C(=O)O (stereo not drawn)	> 100 µM	–	> 100	> 100	> 100 µM	–	–	> 100	> 100	> 100	–	–	–	–	–	–	–
COC(=O)c1cc(O)ccc1NC(=O)c1ccc(O)cc1	> 100 µM	–	> 100	> 100	> 100 µM	–	–	> 100	> 100	> 100	–	–	–	–	–	–	–
C/C(CN1C(=O)c2ccccc2C1=O)=N\NS(C)(=O)=O	> 100 µM	–	> 100	> 100	> 100 µM	–	–	> 100	> 100	> 100	–	–	–	–	–	–	–
COC1(C)Cc2c(c(C)c(O)c3c2C(=O)C=C(Cl)C3=O)O1 (stereo not drawn)	56.5 µM	> 100	> 100	> 100	28.9 µM	39.9	–	> 66.3	> 100	47.1	–	–	–	–	–	–	–

Source: PubChem BioAssay (NCI)
